Results as given in patent publication US12268707B2, “Treatment for coronavirus infection and associated cytokine toxicity” (priority 2020, dated 2025).
Several values for one entry are separate records, joined by “and”; a condition that tells them apart may be missing. Equal entries are not always repeated.

Columns and labels:
[1] = fraction of heparin's anticoagulant properties; cited from earlier work
[2] = high doses for extended periods; cited from earlier work
[3] = administered orally, intravenously or subcutaneously; cited from earlier work
[4] = tested on: SARS-CoV-2; type: cell-based

pentosan polysulfate [PPS]
anticoagulant properties relative to heparin [1]: about 1/15 and 1/15 | side effects [2]: only limited side effects | bioavailability [3]: bioavailable | reduction in virus infectivity (TCID50/mL) [4]: almost four orders of magnitude reduction | virus replication in Calu3 cells [4]: inhibited much more strongly
